According to the NIST ThermoML archive (doi:10.1016/j.jct.2008.06.009):

Conditions: Liquid, Bellows volumetry

N [ammonia]
mass density [kg/m3]
Conditions	450 K	500 K
30000 kPa	355.3	–
40000 kPa	403.7	–
50000 kPa	433.4	350.9
60000 kPa	455.2	384.9
70000 kPa	472.6	410.1
80000 kPa	487.4	430.2
90000 kPa	500.2	446.9
100000 kPa	511.7	461.5
120000 kPa	531.4	485.8
140000 kPa	548.2	505.9
160000 kPa	563.1	523.1
180000 kPa	576.3	538.3
200000 kPa	588.2	551.9
